# In paper PMC10618445, “Eucalyptus torquata L. flowers: a comprehensive study reporting their metabolites profiling and anti-gouty arthritis potential” (Scientific Reports, 2023):
# What was measured:
# [1] = ABTS radical scavenging assay; details: mean ± SD, triplicate
# Procedure: DPPH radical scavenging, ABTS radical scavenging and FRAP assays were done according to Dudonne et al.[19] method minor modifications. The details are mentioned in the supplementary file. Briefly, 200 µL of the reaction mixture containing 10 µL extract/ standard at different concentrations (0.1575 - 1 mg/mL) was added to 2,2′-Azino-bis(3-ethylbenzothiazoline-6-sulfonic acid (ABTS) solution (190 µL) then measured at 734 nm in 96 well-plates. The ABTS solution was composed as follows; 5 mL of 14 mM ABTS dissolved in methanol added to 5 mL solution of 4.9 mM potassium persulfate, and subsequently stored for 16 h at room temperature in dark. This solution was diluted with methanol till the absorbance was 0.700.
# [2] = Ferric reducing power assay (FRAP); details: mean ± SD, triplicate
# Procedure: DPPH radical scavenging, ABTS radical scavenging and FRAP assays were done according to Dudonne et al.[19] method minor modifications. The details are mentioned in the supplementary file. The ferric reducing power of the extract was determined using the method reported previously by Dudonne, et al., 2009 [1]. The reduction is monitored by measuring the change of absorbance at 593 nm. […] A standard curve was prepared using various concentrations of FeSO4 .7H2O. All solutions were used on the day of preparation. A 100 µL of the sample solution and 300 μL of deionized water were added to 3 mL of freshly prepared FRAP reagent. The reaction mixture was incubated in a water bath for 30 min at 37 °C. The difference between sample absorbance and blank absorbance was calculated and used to calculate the FRAP value. All measurements were done in triplicate and the EC50 was calculated. Ascorbic acid is used as standard.
# [3] = DPPH radical scavenging assay; details: mean ± SD, triplicate
# Procedure: DPPH radical scavenging, ABTS radical scavenging and FRAP assays were done according to Dudonne et al.[19] method minor modifications. The details are mentioned in the supplementary file. Briefly, 20 μL of the diluted concentrations of ETME/ standard (0.1575 - 1 mg/mL) were added to 200 μL of 2,2-diphenyl-1-picrylhydrazyl (DPPH) in a 96 well-plate and the absorbance was measured at 517 nm after incubation for 30 min [1] using ascorbic acid as standard. […] was determined using the equation; [(Ac – As) / Ac] × 100. In which, Ac was the control absorbance (DPPH solution without the tested sample) while As was the sample absorbance (DPPH solution in addition to the extract or standard).
# protease = test: Protease (proteinase) inhibitory activity; type: biochemical; details: mean ± SD, triplicate
# Procedure: (§1) Albumin denaturation inhibition was evaluated using the previously described method. Membrane stabilization and proteinase inhibitory potentials were evaluated using the previously reported method. Diclofenac was used as the reference drug. All the experiments were performed in triplicate.
# red blood cell membranes = test: Membrane stabilization; type: cell-based; details: mean ± SD, triplicate
# Procedure: as §1
# Denaturation of tissue proteins is well documented in the pathogenesis of inflammatory events like arthritis. The protection against protein denaturation is one of NSAIDs mechanisms of action. In addition, red blood cell hemolysis inhibition may provide insights into the process of inflammation. Stabilization of the red blood cell membranes may delay or prevent the lysis and the consequent cytoplasmic contents release and the inflammatory response. So, plants that can interfere with these responses could be very useful for developing novel anti-arthritic drugs. Natural extracts from other Eucalyptus species produced similar albumin denaturation and cell membrane stabilization activities including E. obliqua leaves, E. sideroxylon bark[9] and E. globulus leaves.
# U937 human monocytes = test: Histamine release inhibitory activity (PMA-treated cells, ELISA); type: cell-based; details: 20 nM PMA, 1 h, mean ± SD
# Procedure: U937 human monocytes (ATCC, Manassas, VA, USA) were used to study the effect of the extract on histamine release. U937 cells (50,000 cells) were plated in a 96-well plate and treated with various concentration (1000–7.81 µg/mL) of the extract, in presence or absence of 20 nM phorbol myristate acetate (PMA) for 1 h. The cell culture supernatants collected from either untreated control or treated cultures were centrifuged at 10,000 g for 5 min at 4 °C and assessed for the released histamine by the commercially available ELISA kit. Diclofenac was used as the positive control.
# 5-lipoxygenase (5-LOX) = test: 5-lipoxygenase inhibitory assay (lipoxygenase inhibitor screening kit); type: biochemical; details: mean ± SD, triplicate
# Source text: (§2) Methanol, DPPH (2,2-diphenyl-1-picrylhydrazyl), ABTS (2,2′-Azino-bis (3-ethylbenzothiazoline-6-sulfonic acid)), TPTZ (2,4,6-tri(2-pyridyl)-s-triazine), ascorbic acid, hyaluronic acid (human umbilical cord), sodium hydroxide, hyaluronidase (bovine testes), calcium chloride, p-dimethylaminobenzaldehyde (PDMAB), and sodium borate were purchased from Sigma-Aldrich (USA). COX (ovine) and LOX inhibitor screening assay kits (Cayman Chemical Company, MI, USA), 96-well cell culture plate (Corning Life Sciences, Lowell, MA, USA), PMA (Sigma-Aldrich, St. Luis, MO, USA), and histamine release assay kit (SPI-Bio, France) were used.
# The COX inhibitory activity was assayed using Cayman colorimetric COX (ovine) inhibitor screening assay kit, according to the manufacturer’s instructions. The selectivity index (S.I.) was then calculated as IC50 (COX-1)/IC50 (COX-2). In vitro 5-lipoxygenase (5-LOX) inhibitory assay was carried out using lipoxygenase inhibitor screening assay kit, according to the manufacturer’s instructions. Diclofenac sodium was used as a reference drug.
# tyrosinase = test: Tyrosinase inhibition assay with L-DOPA as substrate; type: biochemical; details: mean ± SD
# Procedure: Tyrosinase inhibition assay was performed with L-DOPA as substrate adopting the previously described method. Detailed procedures are described in the supplementary file.
# Tyrosinase inhibition assay was performed with L-DOPA as substrate adopting the method reported in [3]. In a 96-plate, 685 μL of phosphate buffer (0.05 M, pH 6.5), 15 μL of tyrosinase enzyme (2500 U /mL), 200 μL of ETME (7.81–1000 µg/mL) and 100 μL of 5 mM/L L-DOPA were added. The absorbance was immediately monitored at 492 nm. Kojic acid was used as the positive control. The assay was made in triplicate. The percentage inhibition was calculated as follows: % of inhibition = (Acontrol/Atested sample)/ Acontrol) x 100. Where, Acontrol is the absorbance without the addition of the inhibitor and Asample is the absorbance after adding the standard.
# xanthine oxidase (XO) = xanthine oxidase (XO) (Bos taurus, UniProt P80457); test: Xanthine oxidase (XO) inhibitory activity; type: biochemical; details: mean ± SD, triplicate; read-out: Xanthine oxidase IC50/EC50 (converted)
# Chain of xanthine oxidase (XO) (P80457 whole entry): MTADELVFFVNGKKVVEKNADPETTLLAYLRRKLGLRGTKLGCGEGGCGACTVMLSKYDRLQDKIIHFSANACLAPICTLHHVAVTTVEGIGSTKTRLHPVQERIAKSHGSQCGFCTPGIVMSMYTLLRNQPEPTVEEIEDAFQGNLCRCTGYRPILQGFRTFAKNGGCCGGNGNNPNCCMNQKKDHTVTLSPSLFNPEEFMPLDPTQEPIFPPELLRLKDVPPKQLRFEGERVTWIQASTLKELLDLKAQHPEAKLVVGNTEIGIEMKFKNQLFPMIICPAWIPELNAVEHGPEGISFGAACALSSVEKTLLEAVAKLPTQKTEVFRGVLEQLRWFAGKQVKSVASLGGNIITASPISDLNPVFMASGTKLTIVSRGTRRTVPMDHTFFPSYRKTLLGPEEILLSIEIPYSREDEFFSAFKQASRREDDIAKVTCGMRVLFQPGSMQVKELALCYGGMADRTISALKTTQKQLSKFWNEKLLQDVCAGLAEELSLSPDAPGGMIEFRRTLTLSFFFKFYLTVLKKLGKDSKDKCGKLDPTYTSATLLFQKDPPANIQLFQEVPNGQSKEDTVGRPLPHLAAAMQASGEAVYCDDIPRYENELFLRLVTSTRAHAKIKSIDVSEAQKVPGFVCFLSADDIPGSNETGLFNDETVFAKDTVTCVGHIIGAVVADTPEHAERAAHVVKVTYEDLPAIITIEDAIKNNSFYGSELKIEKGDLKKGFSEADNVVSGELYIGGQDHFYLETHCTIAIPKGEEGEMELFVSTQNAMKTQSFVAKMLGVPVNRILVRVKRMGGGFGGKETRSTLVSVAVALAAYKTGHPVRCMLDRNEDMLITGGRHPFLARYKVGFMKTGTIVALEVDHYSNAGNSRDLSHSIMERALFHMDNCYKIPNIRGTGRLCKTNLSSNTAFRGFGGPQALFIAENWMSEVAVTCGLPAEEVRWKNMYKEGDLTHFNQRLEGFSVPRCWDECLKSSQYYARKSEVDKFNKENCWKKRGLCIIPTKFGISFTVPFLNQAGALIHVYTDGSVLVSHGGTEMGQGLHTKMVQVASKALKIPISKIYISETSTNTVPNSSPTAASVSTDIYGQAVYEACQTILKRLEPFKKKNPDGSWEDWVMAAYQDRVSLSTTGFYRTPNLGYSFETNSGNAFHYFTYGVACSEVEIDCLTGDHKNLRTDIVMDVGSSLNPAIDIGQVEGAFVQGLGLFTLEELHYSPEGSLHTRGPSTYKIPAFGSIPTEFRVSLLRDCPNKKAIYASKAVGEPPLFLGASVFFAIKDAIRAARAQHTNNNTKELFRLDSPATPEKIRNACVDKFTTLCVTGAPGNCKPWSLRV
# Procedure: The XO inhibitory activity was assayed following the protocol reported in[22]. Detailed procedures are described in the supplementary file. The XO inhibitory activity was assayed following the protocol reported in [2]. Five hundred µL of different concentrations of ETME/ standard (10- 100 µg/mL) were added to the enzyme solution (1.3 mL of phosphate buffer at concentration of 65 mM and pH 7.4 containing 0.28 U/mL of XO). Then the mixture was incubated for 10 min at 30 ℃. Next, 1.4 mL of the substrate xanthine (0.6 mM) was added to the mixture. The absorbance was measured at every minute for 10 min at 295 nm. Allopurinol was used as the standard drug. The percentage inhibition of XO was calculated as: % inhibition = (1 – Absorbance of sample/ Absorbance of blank) x 100. The IC50 value was calculated from the calibration curve.
# [4] = test system: hyaluronidase (bovine testes); test: Hyaluronidase inhibitory activity; type: biochemical; details: mean ± SD, triplicate
# Source text: as §2
# Hyaluronidase inhibitory activity of ETME was evaluated spectrophotometrically as reported by Perera et al.[24] with minor modifications. Detailed procedures are described in the supplementary file.
# Hyaluronidase inhibitory activity of ETME was evaluated spectrophotometrically as reported by Perera et al., 2018 with minor modifications. […]. The percentage of enzyme inhibition was calculated as follows:
# % of inhibition = (Acontrol/Atested sample)/ Acontrol) x 100.
# Where Acontrol is the absorbance without addition of the inhibitor and Asample is the absorbance after adding the extract/standard. The IC50 value, the concentration giving 50% inhibition of hyaluronidase activity, was determined by interpolation using the concentration-response curves. […]
smiles,measurement,setting,value
"O=C1O[C@H]([C@@H](O)CO)C(O)=C1O [Ascorbic acid, ascorbic acid]",ABTS IC50/EC50,[1],21.4 ± 1.6 µg/mL
same,FRAP IC50/EC50,[2],3.9 ± 1.9 µg/mL
same,DPPH IC50/EC50,[3],2.2 ± 1.6 µg/mL
O=C(O)Cc1ccccc1Nc1c(Cl)cccc1Cl [Diclofenac],Protease IC50/EC50,protease,25.14 ± 1.2 µg/mL
same,Membrane stabilization IC50/EC50,red blood cell membranes,17.02 ± 1.3 µg/mL
same,Histamine release IC50/EC50,U937 human monocytes,17.94 ± 1.4 µg/mL
COc1ccc2c(c1)c(CC(=O)O)c(C)n2C(=O)c1ccc(Cl)cc1 [Indomethacin],LOX IC50/EC50,5-lipoxygenase (5-LOX),23.4 ± 0.83 µg/mL
O=c1cc(CO)occ1O [Kojic acid],Tyrosinase IC50/EC50,tyrosinase,52.0 ± 0.98 µg/mL
O=c1[nH]c(=O)c2c[nH]nc2[nH]1 [Oxypurinol],IC50,xanthine oxidase (XO),96.6 µM
O=C([O-])CC([S-])C(=O)[O-].[Au+].[Na+].[Na+] (stereo not shown) [Sodium aurothiomalate],Hyaluronidase IC50/EC50,[4],20.03 ± 0.96 µg/mL
